Test results published in PubChem BioAssay AID248 (DTP/NCI, 2004).
Values joined by “and” are separate entries in the source; they are usually repeats but may differ in a detail not shown here. Equal values may be shown once. Toxic doses and inconclusive results are not listed. Cut-off read from the data, not from the text of the source: active = T/C of 150% or more; inactive = T/C below 125%.

Tested on: L1210 leukemia ip in BDF1 mice, survival T/C
Test: NCI In Vivo Anticancer Drug Screen. Data for tumor model L1210 Leukemia (intraperitoneal) in B6D2F1 (BDF1) mice
Details: endpoint: mean survival time, higher = longer survival
Procedure, shortened: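 Transplantable tumor model; survival measured in treated vs vehicle control mice. Value = treated/control.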

[1] = dose: 100.0 mg/kg/injection, schedule: Q04DX003 (ip), vehicle: Klucel (hydroxypropylcellulose) (HPC)
[2] = dose: 200.0 mg/kg/injection, schedule: Q04DX003 (ip), vehicle: Klucel (hydroxypropylcellulose) (HPC)
[3] = dose: 400.0 mg/kg/injection, schedule: Q04DX003 (ip), vehicle: Klucel (hydroxypropylcellulose) (HPC)
[4] = dose: 25.0 mg/kg/injection, schedule: Q04DX002 (ip), vehicle: Klucel (hydroxypropylcellulose) (HPC)
[5] = dose: 50.0 mg/kg/injection, schedule: Q04DX002 (ip), vehicle: Klucel (hydroxypropylcellulose) (HPC)
[6] = dose: 100.0 mg/kg/injection, schedule: Q04DX002 (ip), vehicle: Klucel (hydroxypropylcellulose) (HPC)
[7] = dose: 100.0 mg/kg/injection, schedule: Q01DX009 (ip), vehicle: saline with Tween-80
[8] = dose: 100.0 mg/kg/injection, schedule: Q04DX002 (ip), vehicle: saline with Tween-80
[9] = dose: 100.0 mg/kg/injection, schedule: Q04DX003 (ip), vehicle: saline with Tween-80
[10] = dose: 200.0 mg/kg/injection, schedule: Q01DX009 (ip), vehicle: saline with Tween-80
[11] = dose: 200.0 mg/kg/injection, schedule: Q04DX002 (ip), vehicle: saline with Tween-80
[12] = dose: 200.0 mg/kg/injection, schedule: Q04DX003 (ip), vehicle: saline with Tween-80
[13] = dose: 400.0 mg/kg/injection, schedule: Q01DX009 (ip), vehicle: saline with Tween-80
[14] = dose: 400.0 mg/kg/injection, schedule: Q04DX002 (ip), vehicle: saline with Tween-80
[15] = dose: 400.0 mg/kg/injection, schedule: Q04DX003 (ip), vehicle: saline with Tween-80
[16] = dose: 100.0 mg/kg/injection, schedule: Q01DX001 (ip), vehicle: Klucel (hydroxypropylcellulose) (HPC)
[17] = dose: 200.0 mg/kg/injection, schedule: Q01DX001 (ip), vehicle: Klucel (hydroxypropylcellulose) (HPC)
[18] = dose: 100.0 mg/kg/injection, schedule: Q01DX009 (ip), vehicle: Klucel (hydroxypropylcellulose) (HPC)
[19] = dose: 200.0 mg/kg/injection, schedule: Q01DX009 (ip), vehicle: Klucel (hydroxypropylcellulose) (HPC)
[20] = dose: 400.0 mg/kg/injection, schedule: Q01DX009 (ip), vehicle: Klucel (hydroxypropylcellulose) (HPC)

Measured: T/C

COc1cccc(CCNC(=O)CC#N)c1
inactive: [1] 98 % of control | [2] 87 % of control | [3] 91 % of control

COC1c2ccccc2C=CN1c1ccc([N+](=O)[O-])cc1[N+](=O)[O-] (stereo not drawn)
inactive: [1] 110 % of control | [2] 104 % of control | [3] 108 % of control

Cc1cnc(SCc2ccc(Cl)cc2)[nH]c1=S
inactive: dose: 25.0 mg/kg/injection, schedule: Q01DX Z (ip), vehicle: methylcellulose (MC) 87 % of control | dose: 50.0 mg/kg/injection, schedule: Q01DX Z (ip), vehicle: methylcellulose (MC) 89 % of control

NC(=O)CCC(NC(=O)OCc1ccccc1)C(=O)NCC(=O)O (stereo not drawn)
inactive: [4] 95 % of control | [5] 92 % of control | [6] 100 % of control

CC(C)C(NC(=O)CI)C(=O)Nc1ccc(C(=O)O)c(O)c1 (stereo not drawn)
inactive: [1] 108 % of control | [2] 94 % of control

COc1cc([N+](=O)[O-])ccc1NC(=O)N(C1CCCCC1)C1CCCCC1
inactive: dose: 50.0 mg/kg/injection, schedule: Q01DX009 (ip), vehicle: saline with Tween-80 100 % of control and 106 % of control | dose: 50.0 mg/kg/injection, schedule: Q04DX002 (ip), vehicle: saline with Tween-80 90 % of control | dose: 100.0 mg/kg/injection, schedule: Q01DX001 (ip), vehicle: saline with Tween-80 95 % of control | [7] 96 % of control and 108 % of control | [8] 93 % of control and 99 % of control and 105 % of control | [9] 108 % of control | dose: 200.0 mg/kg/injection, schedule: Q01DX001 (ip), vehicle: saline with Tween-80 91 % of control | [10] 100 % of control and 104 % of control | [11] 89 % of control | [12] 106 % of control | dose: 400.0 mg/kg/injection, schedule: Q01DX001 (ip), vehicle: saline with Tween-80 91 % of control | [13] 108 % of control and 111 % of control | [14] 93 % of control and 97 % of control and 99 % of control | [15] 104 % of control

CCOc1cccnc1/C=N/NC(N)=S
inactive: dose: 50.0 mg/kg/injection, schedule: Q01DX001 (ip), vehicle: saline 106 % of control | dose: 100.0 mg/kg/injection, schedule: Q01DX001 (ip), vehicle: saline 102 % of control | dose: 200.0 mg/kg/injection, schedule: Q01DX001 (ip), vehicle: saline 100 % of control | dose: 400.0 mg/kg/injection, schedule: Q01DX001 (ip), vehicle: saline 108 % of control

CC1CC(CN2c3ccccc3Sc3ccccc32)C(C)N1C (stereo not drawn)
inactive: dose: 12.5 mg/kg/injection, schedule: Q04DX003 (ip), vehicle: acetone 101 % of control | dose: 25.0 mg/kg/injection, schedule: Q04DX003 (ip), vehicle: acetone 120 % of control

C[N+](C)(C)CC(O)COc1ccc(Cl)cc1Cl (stereo not drawn)
inactive: [4] 97 % of control | [5] 101 % of control | [6] 94 % of control and 89 % of control

COP(=O)(OC)Oc1c(Cl)c(OP(=O)(OC)OC)c(Cl)c(OP(=O)(OC)OC)c1Cl
inactive: [6] 115 % of control | dose: 200.0 mg/kg/injection, schedule: Q04DX002 (ip), vehicle: Klucel (hydroxypropylcellulose) (HPC) 100 % of control | dose: 400.0 mg/kg/injection, schedule: Q04DX002 (ip), vehicle: Klucel (hydroxypropylcellulose) (HPC) 86 % of control

OC(c1ccccc1)(c1ccccc1)c1ccccc1CNc1ccccc1
inactive: dose: 50.0 mg/kg/injection, schedule: Q01DX001 (ip), vehicle: carboxymethylcellulose (CMC) 102 % of control | dose: 100.0 mg/kg/injection, schedule: Q01DX001 (ip), vehicle: carboxymethylcellulose (CMC) 88 % of control | dose: 200.0 mg/kg/injection, schedule: Q01DX001 (ip), vehicle: carboxymethylcellulose (CMC) 102 % of control | dose: 400.0 mg/kg/injection, schedule: Q01DX001 (ip), vehicle: carboxymethylcellulose (CMC) 96 % of control

CCOC(=O)c1cc2ccccc2[nH]1
inactive: dose: 50.0 mg/kg/injection, schedule: Q01DX001 (ip), vehicle: Klucel (hydroxypropylcellulose) (HPC) 93 % of control | [16] 98 % of control | [8] 97 % of control | [17] 93 % of control | [11] 87 % of control | [14] 97 % of control

c1ccc2c(C(CCN3CCOCC3)(CCN3CCOCC3)CNC3=NCCN3)cccc2c1
inactive: dose: 12.5 mg/kg/injection, schedule: Q01DX009 (ip), vehicle: saline 105 % of control | dose: 25.0 mg/kg/injection, schedule: Q01DX009 (ip), vehicle: saline with Tween-80 103 % of control | dose: 25.0 mg/kg/injection, schedule: Q01DX009 (ip), vehicle: saline 109 % of control | dose: 50.0 mg/kg/injection, schedule: Q01DX009 (ip), vehicle: saline 111 % of control

N#CC(C#N)=CN
inactive: [16] 105 % of control | [17] 106 % of control | dose: 400.0 mg/kg/injection, schedule: Q01DX001 (ip), vehicle: Klucel (hydroxypropylcellulose) (HPC) 101 % of control

Cc1ccc(S(=O)(=O)OCC2C(COS(=O)(=O)c3ccc(C)cc3)C3CCC2C3C(c2ccccc2)c2ccccc2)cc1 (stereo not drawn)
inactive: [18] 103 % of control | [1] 98 % of control | [19] 94 % of control | [2] 102 % of control | [20] 111 % of control | [3] 96 % of control

Cc1cnc(C#N)c(Cl)n1
inactive: [7] 95 % of control | [9] 92 % of control | [10] 101 % of control | [12] 98 % of control | [13] 88 % of control | [15] 97 % of control

c1ccc(-c2nn(-c3ccccc3)[n+](-c3ccccc3-c3ccccc3)n2)cc1
inactive: dose: 4.0 mg/kg/injection, schedule: Q01DX015 (ip), vehicle: carboxymethylcellulose (CMC) 98 % of control | dose: 8.0 mg/kg/injection, schedule: Q01DX015 (ip), vehicle: carboxymethylcellulose (CMC) 93 % of control | dose: 16.0 mg/kg/injection, schedule: Q01DX015 (ip), vehicle: carboxymethylcellulose (CMC) 94 % of control

CCOC(=O)C(=O)c1c(C)[nH]c2ccccc12
inactive: [18] 96 % of control | [1] 103 % of control | [19] 92 % of control | [2] 95 % of control | [20] 94 % of control | [3] 97 % of control

CC(=O)Nc1nc(C=O)c(CCCCc2ccccc2)c(=O)[nH]1
inactive: dose: 80.0 mg/kg/injection, schedule: Q01DX001 (ip), vehicle: Klucel (hydroxypropylcellulose) (HPC) 102 % of control | dose: 160.0 mg/kg/injection, schedule: Q01DX001 (ip), vehicle: Klucel (hydroxypropylcellulose) (HPC) 107 % of control | dose: 320.0 mg/kg/injection, schedule: Q01DX001 (ip), vehicle: Klucel (hydroxypropylcellulose) (HPC) 107 % of control
